Drawing on ChEMBL document CHEMBL1125116 (J Med Chem, 1990), this text covers Ki and Kd for two compounds.

Experiment [1] addresses T1, D(2) dopamine receptor (Rattus norvegicus, UniProt P61169). In words: Competitive binding assay against Dopamine receptor D2 in rat striatal membranes and [125I]-IBF radioligand. It counts as cell membranes, Striatum, Membrane.
Experiment [2] addresses T1, D(2) dopamine receptor. In words: Evaluated in vitro for the affinity towards Dopamine receptor D2 of rat striatal tissue.

T1 sequence (P61169 whole entry): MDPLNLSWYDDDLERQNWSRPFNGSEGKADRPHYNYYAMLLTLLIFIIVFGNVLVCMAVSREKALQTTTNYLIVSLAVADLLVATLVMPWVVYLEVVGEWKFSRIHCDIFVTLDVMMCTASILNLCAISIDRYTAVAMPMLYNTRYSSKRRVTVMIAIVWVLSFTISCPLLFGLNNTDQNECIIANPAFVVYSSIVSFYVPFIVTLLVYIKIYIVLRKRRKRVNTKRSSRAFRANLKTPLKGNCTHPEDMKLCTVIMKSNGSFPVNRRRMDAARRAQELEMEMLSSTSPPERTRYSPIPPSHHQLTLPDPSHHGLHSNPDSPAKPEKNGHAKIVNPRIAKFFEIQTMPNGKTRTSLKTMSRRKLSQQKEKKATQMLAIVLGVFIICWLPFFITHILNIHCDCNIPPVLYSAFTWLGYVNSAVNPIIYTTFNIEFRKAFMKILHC

By Ki is commonly meant the equilibrium dissociation constant of an inhibitor or competing ligand from its target. Read a high Ki as a looser hold on the target. `NC1CCc2cc(O)c(O)cc2C1` (racemic) yielded a Ki at D(2) dopamine receptor [1] of 0.0657 µM.

The Kd is a measure of binding affinity in units of concentration. With `COc1cc(N=[N+]=[N-])c(I)cc1C(=O)NC1CCN(Cc2ccccc2)CC1` [IODOAZIDOCLEBOPRIDE], on D(2) dopamine receptor [2], the dissociation constant (Kd) is 0.014 µM.
